Assay results: EP0696280B1, “SUBSTITUTED PYRROLIDIN-3-YL-ALKYL-PIPERIDINES USEFUL AS TACHYKININ ANTAGONISTS” (MERRELL PHARMACEUTICALS INC., priority 1993, dated 1994)
pIC50: −log10 of the molar value. Counter-ions that a name gives are not always drawn. Like-named read-outs stand apart in the source and are kept apart here.

Legend:
NK1 receptor [1] = molecular target: T1, NK1 receptor (Homo sapiens, UniProt P25103); test: Antagonism of NK1 receptor mediated (SP-induced) phosphatidylinositol turnover in UC11 cells; format: cell-based
T1 construct: endogenous in cells; host or cells: UC11 cells
T1 sequence (P25103 whole entry): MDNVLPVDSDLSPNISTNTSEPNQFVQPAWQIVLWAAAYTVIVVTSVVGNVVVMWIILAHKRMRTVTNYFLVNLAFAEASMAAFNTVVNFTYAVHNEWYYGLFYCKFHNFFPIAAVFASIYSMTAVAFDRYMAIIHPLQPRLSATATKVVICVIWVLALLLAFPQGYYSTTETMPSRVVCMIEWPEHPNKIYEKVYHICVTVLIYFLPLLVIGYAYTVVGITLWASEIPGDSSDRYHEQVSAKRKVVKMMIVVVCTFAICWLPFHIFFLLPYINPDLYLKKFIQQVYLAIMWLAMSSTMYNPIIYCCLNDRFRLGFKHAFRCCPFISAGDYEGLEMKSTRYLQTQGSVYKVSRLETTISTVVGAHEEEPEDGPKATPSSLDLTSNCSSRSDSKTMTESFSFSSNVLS
Experimental: Tachykinin-mediated inositol phosphate accumulation was measured in UCll or SKLKB82#3 cells in the presence and absence of NK1 or NK2 receptor antagonists, respectively. Tissues were incubated in Krebs-Henseleit buffer at 37°C with 95% O2-5% CO2 gassing. Tissues were then incubated with fresh buffer containing 100 µCi of myo-[2-^3H(N)] inositol at 37°C for 60 min with gentle gassing. After washing twice at room temperature in 5 ml buffer containing 10 mM LiCl, tissues were incubated for 30 min at room temperature with a buffer change at 15 min. Buffer was removed and Krebs-Henseleit buffer (containing 40 µg/ml bacitracin, 4 µg/ml each of leupeptin and chymostatin, 0.1% bovine serum albumin and 10 mM each of thiorphan and LiCl) added. After 15 min, SP was added to UCll cells or NKA to SKLKB82#3 cells at various concentrations to start the reaction. After incubation for 60 min at room temperature the reaction was terminated by addition of 930 µl chloroform: methanol (1:2 by volume) to each tube, followed by 310 µl chloroform and 310 µl doubly distilled water. Samples were vortexed, centrifuged, and 0.9 ml of the aqueous (top) phase removed and added to 2 ml ddH2O. The mixture was vortexed and loaded onto a 50% Bio-Rad AG 1-X8 (formate form, 100-200 mesh) exchange column (Bio-Rad Laboratories, Hercules, CA). The columns were washed, in order, with: 1) 10 ml doubly distilled water, 2) 5 ml of 5 mM disodium tetraborate/60 mM sodium formate, and 3) 5 ml of 1 M ammonium formate/0.1 M formic acid. The third elution was collected and 1 ml counted in 7 ml scintillation fluid. A 50 µl aliquot of the organic (bottom) phase was removed, dried in a scintillation vial and counted in 7 ml scintillation fluid.
The ratio of DPM in the aqueous phase aliquot (total inositol phosphates) to the DPM in the 50 µl organic phase aliquot (total [^3H]inositol incorporated) was calculated for each sample. Data are expressed as a percent of agonist-induced accumulation of [^3H]-inositol phosphates over basal levels. The ratios in the presence of test compound and/or standards were compared to the ratios for control samples (i.e. no stimulating agonist). Dose-response graphs were constructed and the abilities of the test compounds to inhibit tachykinin-induced phosphatidylinositol turnover determined with the aid of a computer program. […] Data is expressed as percent stimulation of total inositol phosphate accumulation over basal levels and normalized to the maximum response produced by SP. […] Schild analysis is performed using dose response curves (such as those presented in Figures 1a and 1b) to obtain a value indicative of the strength of a competitive antagonist and is expressed as the pA2, which is the negative logarithm of the molar concentration of antagonist which reduces the effect of a dose of agonist to one-half of that expected at the dose of agonist. […]
Values are mean (95% confidence limits) derived from Schild analysis of 2-3 experiments per compound per receptor.

[2] = molecular target: T2, human jejunal NK2 receptor (Homo sapiens, UniProt P21452); test: Antagonism of iodinated tachykinin binding to NK2 receptor (125iodohistidyl-1-neurokinin A, HSKR-1 cell membranes)
T2 construct: expressed in transfected cells; host or cells: HSKR-1 cells (mouse 3T3 fibroblasts)
T2 sequence (P21452 1-398): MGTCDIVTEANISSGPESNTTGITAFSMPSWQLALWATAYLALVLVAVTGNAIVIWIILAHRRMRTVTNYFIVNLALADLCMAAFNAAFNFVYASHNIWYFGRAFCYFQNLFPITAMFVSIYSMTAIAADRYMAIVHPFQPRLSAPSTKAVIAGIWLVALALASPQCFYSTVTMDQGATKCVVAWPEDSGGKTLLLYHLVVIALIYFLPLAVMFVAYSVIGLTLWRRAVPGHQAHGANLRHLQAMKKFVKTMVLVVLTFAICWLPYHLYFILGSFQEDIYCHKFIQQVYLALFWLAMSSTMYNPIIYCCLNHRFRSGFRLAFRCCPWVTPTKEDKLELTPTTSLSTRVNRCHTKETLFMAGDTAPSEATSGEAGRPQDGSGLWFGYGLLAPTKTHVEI
Experimental: (§1) The NK1 receptor affinity of proposed tachykinin antagonists was devaluated in guinea pig lungs (Keystone Biologicals, Cleveland, OH), affinity for the NK2 receptor evaluated in HSKR-1 cells (which are mouse 3T3 fibroblasts expressing the human jejunal NK2 receptor) and NK-3 receptor affinity was evaluated in freshly collected guinea pig cerebral cortex. Tissues or cells were homogenized with a Polytron in 15 volumes of 50 mM Tris-HCl buffer (pH 7.4, 4°C) and centrifuged. The pellet was resuspended in Tris-HCl buffer and was centrifuged; the pellet was washed twice by resuspension. The final pellet was resuspended at a concentration of 40 mg/ml for tissues (guinea pig lung and cerebral cortex) and 20 mg/ml for cells in incubation buffer and remained at room temperature for at least 15 min prior to use. Receptor binding was initiated by addition of 250 µl membrane preparation in duplicate to 0.1 nM of the following radioligands: ^125I-Bolton Hunter Lys-3 labeled substance P; ^125iodohistidyl-1-neurokinin A; and ^125I-Bolton Hunter labeled Lys-4 eledoisin in a final volume of 500 µl of buffer containing 50 mM Tris-HCl (pH 7.4 at room temperature), 0.1% bovine serum albumin, 2 mM MnCl2, 40 µg/ml bacitracin, 4 µg/ml leupeptin and chymostatin, 1 µM thiorphan and various doses of the putative tachykinin antagonists. Incubations were performed at room temperature for 90 min (NK1 receptor assays) or 2 hr (NK2 and NK3 receptor assays); binding was terminated by addition of 50 mM Tris-HCl buffer (pH 7.4, 4°C) and filtration under vacuum through GF/B filters presoaked with 0.1% polyethyleneimine (NK1 receptor assays) or 0.5% bovine serum albumin (NK2 and NK3 receptor assays). Filter bound radioactivity was quantitated in a gamma counter. Nonspecific binding was defined as binding in the presence of 1 µM substance P, neurokinin A, or eledoisin. Specific binding was calculated by subtracting nonspecific binding from total binding. Competition of iodinated SP, NKA, or eledoisin binding by test compounds or standards was expressed as a percentage of this maximum competition. IC50 values (concentration required to inhibit 50% of receptor binding) were generated for each of the test compounds by nonlinear regression using an iterative curve fitting program (GraphPAD Inplot, San Diego, CA).

NK1 receptor [3] = molecular target: T3, NK1 receptor (Cavia porcellus, UniProt P30547); test: Antagonism of iodinated tachykinin binding to NK1 receptor (125I-Bolton Hunter Lys-3 labeled substance P, guinea pig lung membranes)
T3 construct: Tissues or cells were homogenized with a Polytron in 15 volumes of 50 mM Tris-HCl buffer; tissue Keystone Biologicals, Cleveland, OH; host or cells: guinea pig lung membranes
T3 sequence (P30547 whole entry): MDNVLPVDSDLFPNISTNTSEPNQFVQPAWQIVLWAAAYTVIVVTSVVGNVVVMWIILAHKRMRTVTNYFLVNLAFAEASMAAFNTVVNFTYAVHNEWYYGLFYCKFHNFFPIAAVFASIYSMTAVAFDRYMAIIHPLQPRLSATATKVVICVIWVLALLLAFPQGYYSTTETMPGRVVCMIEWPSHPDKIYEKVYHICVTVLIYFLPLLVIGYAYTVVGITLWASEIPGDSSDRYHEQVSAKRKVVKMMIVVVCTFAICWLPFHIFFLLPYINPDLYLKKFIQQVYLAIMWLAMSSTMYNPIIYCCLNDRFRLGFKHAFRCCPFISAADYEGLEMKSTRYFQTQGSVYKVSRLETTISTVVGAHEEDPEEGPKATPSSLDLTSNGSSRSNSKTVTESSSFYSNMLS
Experimental: as §1

[4] = Schild analysis, SP in UC11 cells, mean (95% confidence limits), 2-3 experiments

COc1cc(C(=O)N2CCC(CCN3CCC(C(N)=O)(c4ccccc4)CC3)(c3ccc(Cl)c(Cl)c3)C2)cc(OC)c1OC (racemic) [Example 3A, 1-[2-[3-(3,4-dichloro-phenyl-3-yl)-1-(3,4,5-trimethoxy-benzoyl)-pyrrolidin-3-yl]-ethyl] -4-phenyl-piperidine-4-carboxylic acid amide hydrochloride]
NK-1 RECEPTOR -SLOPE (NK1 receptor [1]; [4]): 0.90 (0.65-1.15)
Kb (NK1 receptor [1]; Schild analysis, SP in UC11 cells, mean (95% confidence limits), 2-3 experiments, read-out: NK-1 RECEPTOR pA2 (converted)): 12.3 nM
pIC50 [2]: 7.68
pIC50 (NK1 receptor [3]): 8.22

COc1cccc(OC)c1C(=O)N1CCC(CCN2CCC(C(N)=O)(c3ccccc3)CC2)(c2ccc(Cl)c(Cl)c2)C1 (racemic) [Example 5A, 1-[2-[3-(3,4-dichloro-phenyl-3-yl)-1-(2,6-dimethoxy-benzoyl)-pyrrolidin-3-yl]-ethyl]-4-phenyl-piperidine-4-carboxylic acid amide hydrochloride]
Kb (NK1 receptor [1]): 47.9 nM
NK-1 RECEPTOR -SLOPE (NK1 receptor [1]; [4]): 1.17 (0.41-1.93)
pIC50 ([2]; HSKR-1 cells (mouse 3T3 fibroblasts expressing human jejunal NK2 receptor), mean of several experiments, read-out: NK-2 IC50): 7.40
pIC50 (NK1 receptor [3]): 7.70

COc1cc(C(=O)N2CCC(CCN3CCC(C(N)=O)(c4ccccc4)CC3)(c3ccc(Cl)c(Cl)c3)C2)cc(OC)c1OC (stereo not shown) [Example 3, 1-[2-[3-(3,4-dichloro-phenyl)-1-(3,4,5-trimethoxy-benzoyl)-pyrrolidin-3-yl]-ethyl]-4-phenyl-piperidine-4-carboxylic acid amide]
antagonism of the receptor mediated SP induced PI turnover (NK1 receptor [1]; UC11 cells, Figure 1a, result in words): dose related antagonism
pIC50 [2]: 7.82
affinity for NK2 receptors ([2]; result in words): high affinity
pIC50 (NK1 receptor [3]): 8.30
affinity for NK1 receptors (NK1 receptor [3]; result in words): high affinity
